# Test results reported in patent publication US20120129811A1, “TRICYCLIC INHIBITORS OF PRO-MATRIX METALLOPROTEINASE ACTIVATION” (priority 2010, published 2012).
# pIC50, pKd: −log10 of the molar value. Counter-ions that a name gives are not always drawn.
# What was measured:
# [1] = molecular target: T1, proMMP9(20-445;ΔFnII) (SEQ ID NO:6) (Homo sapiens, UniProt P14780, DEL216-390); test: ThermoFluor binding assay with proMMP9(20-445;ΔFnII)
# T1 construct: start methionine (N); made in house; host or cells: E. coli BL21(DE3) RIL
# T1 sequence (P14780 with tags, fused parts or gaps DEL216-390): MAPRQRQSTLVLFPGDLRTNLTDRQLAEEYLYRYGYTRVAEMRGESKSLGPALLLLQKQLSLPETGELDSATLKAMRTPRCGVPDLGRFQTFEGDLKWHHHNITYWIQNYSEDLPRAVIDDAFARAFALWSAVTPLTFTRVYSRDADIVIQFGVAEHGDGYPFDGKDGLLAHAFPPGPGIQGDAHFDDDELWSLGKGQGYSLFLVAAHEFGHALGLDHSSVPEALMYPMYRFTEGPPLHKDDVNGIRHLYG
# How it was run: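 Protein thermal stability was measured with 2.8 μM proMMP9(20-445;ΔFnII) and 50 μM 1,8-ANS in 50 mM HEPES pH 7.0, 100 mM NaCl, 0.001% Tween-20, 2.5 mM MgCl2, 300 μM CaCl2, across serial compound dilutions. Samples were heated 40–90° C at 1° C/min with fluorescence read at 500 nm. Tm was fitted, and binding was derived from thermodynamic parameters obtained by DSC and ThermoFluor.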
# [2] = molecular target: T2, proMMP9(67-444;ΔFnII) (SEQ ID NO:5) (Homo sapiens, UniProt P14780, DEL216-390); test: ThermoFluor binding assay with proMMP9(67-444;ΔFnII)
# T2 construct: start methionine (N); made in house; host or cells: E. coli BL21(DE3) RIL
# T2 sequence (P14780 with tags, fused parts or gaps DEL216-390): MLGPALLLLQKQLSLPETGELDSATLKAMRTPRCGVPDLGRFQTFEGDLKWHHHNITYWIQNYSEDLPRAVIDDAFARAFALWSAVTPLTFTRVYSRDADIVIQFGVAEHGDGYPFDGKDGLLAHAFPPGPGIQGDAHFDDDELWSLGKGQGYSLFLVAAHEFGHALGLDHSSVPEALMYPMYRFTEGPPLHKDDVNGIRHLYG
# How it was run: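 Thermal shift of 3.5 μM proMMP9(67-444;ΔFnII), desalted beforehand, with 50 μM 1,8-ANS in 50 mM HEPES pH 7.0, 100 mM NaCl, 2.5 mM MgCl2, 300 μM CaCl2, 0.001% Tween-20. Heated 40–90 °C at 1 °C/min, fluorescence read at 500 nm; binding fitted from Tm shifts using DSC- and ThermoFluor-derived unfolding parameters.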
# [3] = molecular target: T3, full-length proMMP9(1-707) activation by catalytic MMP3 (Homo sapiens, UniProt P14780, R574P); test: proMMP9/MMP3 P126 Activation Assay; assay type: biochemical
# T3 construct: made in house; host or cells: proMMP9: HEK293 (secreted); MMP3: E. coli
# Procedure: proMMP9/MMP3 P126 Activation Assay
# The reaction volume was 50 μL. […] Reactivity of residual MMP3 towards P-126 substrate was minimal under these conditions.
# T3 sequence (P14780 20-707 R574P): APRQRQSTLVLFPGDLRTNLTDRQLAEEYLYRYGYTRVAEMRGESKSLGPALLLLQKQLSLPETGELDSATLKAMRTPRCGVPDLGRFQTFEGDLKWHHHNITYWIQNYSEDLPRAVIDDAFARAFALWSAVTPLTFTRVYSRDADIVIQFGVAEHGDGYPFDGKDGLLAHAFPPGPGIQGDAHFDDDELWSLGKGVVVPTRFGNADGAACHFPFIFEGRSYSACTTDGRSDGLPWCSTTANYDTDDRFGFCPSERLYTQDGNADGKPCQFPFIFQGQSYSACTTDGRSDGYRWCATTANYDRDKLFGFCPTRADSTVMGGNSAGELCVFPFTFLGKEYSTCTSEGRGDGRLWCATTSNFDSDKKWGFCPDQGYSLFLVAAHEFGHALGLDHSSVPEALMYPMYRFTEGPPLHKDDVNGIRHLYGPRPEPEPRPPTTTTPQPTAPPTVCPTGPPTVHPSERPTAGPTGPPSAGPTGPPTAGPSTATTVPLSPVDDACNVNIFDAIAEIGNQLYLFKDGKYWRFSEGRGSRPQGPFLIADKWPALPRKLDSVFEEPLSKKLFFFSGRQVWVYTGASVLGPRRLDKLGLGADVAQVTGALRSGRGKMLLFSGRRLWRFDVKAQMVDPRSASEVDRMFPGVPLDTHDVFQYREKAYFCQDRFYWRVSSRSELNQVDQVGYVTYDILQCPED
pKd [1],pKd [2],pIC50 [3],SMILES
< 4.02,6.09,6.39,"Cc1nc2ccc3sc(Nc4cc(F)ccc4OC(C)C)nc3c2n1C [Example 140, (7,8-Dimethyl-8H-imidazo[4′,5′:3,4]benzo[2,1-d]thiazol-2-yl)-(5-fluoro-2-isopropoxy-phenyl)-amine.TFA]"
4.48,5.12,5.89,"Cc1nc2ccc3sc(Nc4cc(F)ccc4OC(C)C)nc3c2n1CC(F)(F)F [Example 141, (5-Fluoro-2-isopropoxy-phenyl)-[7-methyl-8-(2,2,2-trifluoro-ethyl)-8H-imidazo[4′,5′:3,4]benzo[2,1-d]thiazol-2-yl]-amine.TFA]"
< 4.02,5.62,5.74,"CC(C)Oc1ccc(F)cc1Nc1nc2c(ccc3ncn(CC(F)(F)F)c32)s1 [Example 142, (5-Fluoro-2-isopropoxy-phenyl)-[8-(2,2,2-trifluoro-ethyl)-8H-imidazo[4′,5′:3,4]-benzo[2,1-d]thiazol-2-yl]-amine.TFA]"
5.92,6.59,6.80,"CCn1c(C)nc2ccc3sc(Nc4cc(S(C)(=O)=O)ccc4OC(C)C)nc3c21 [Example 143, (8-Ethyl-7-methyl-8H-imidazo[4′,5′:3,4]benzo[2,1-d]thiazol-2-yl)-(2-isopropoxy-5-methanesulfonyl-phenyl)-amine.TFA]"
6.06,6.18,6.59,"Cc1nc2ccc3sc(Nc4cc(S(C)(=O)=O)ccc4OC(C)C)nc3c2n1C [Example 144, (7,8-Dimethyl-8H-imidazo[4′,5′:3,4]benzo[2,1-d]thiazol-2-yl)-(2-isopropoxy-5-methanesulfonyl-phenyl)-amine.TFA]"
5.60,6.25,6.41,"Cc1nc2ccc3sc(Nc4cc(S(C)(=O)=O)ccc4OC(C)C)nc3c2n1CC(F)(F)F [Example 145, (2-Isopropoxy-5-methanesulfonyl-phenyl)-[7-methyl-8-(2,2,2-trifluoro-ethyl)-8H-imidazo[4′,5′:3,4]benzo[2,1-d]thiazol-2-yl]-amine.TFA]"
5.51,6.19,6.10,"CC(C)Oc1ccc(S(C)(=O)=O)cc1Nc1nc2c(ccc3ncn(CC(F)(F)F)c32)s1 [Example 146, (2-Isopropoxy-5-methanesulfonyl-phenyl)-[8-(2,2,2-trifluoro-ethyl)-8H-imidazo[4′,5′:3,4]-benzo[2,1-d]thiazol-2-yl]-amine.TFA]"
5.85,6.40,6.66,"CC(C)Oc1ccc(S(C)(=O)=O)cc1Nc1nc2c(ccc3c2ncn3C)s1 [Example 147, (2-Isopropoxy-5-methanesulfonyl-phenyl)-(6-methyl-6H-imidazo[4′,5′:3,4]benzo[2,1-d]thiazol-2-yl)-amine.TFA]"
6.07,6.54,6.66,"COc1ccncc1Nc1nc2c(ccc3nc(C)n(CC(F)(F)F)c32)s1 [Example 148, (4-Methoxy-pyridin-3-yl)-[7-methyl-8-(2,2,2-trifluoro-ethyl)-8H-imidazo[4′,5′:3,4]benzo[2,1-d]thiazol-2-yl]-amine.TFA]"
6.00,7.41,6.96,"COc1ccncc1Nc1nc2c(ccc3c2ncn3C)s1 [Example 149, (4-Methoxy-pyridin-3-yl)-(6-methyl-6H-imidazo[4′,5′:3,4]benzo[2,1-d]thiazol-2-yl)-amine.TFA]"
5.06,5.92,6.47,"COc1ccc(S(C)(=O)=O)cc1Nc1nc2c(ccc3cnn(C)c32)s1 [Example 150, (5-Methanesulfonyl-2-methoxy-phenyl)-(1-methyl-1H-6-thia-1,2,8-triaza-as-indacen-7-yl)-amine.TFA]"
5.85,6.22,6.19,"COc1ccncc1Nc1nc2c(ccc3ncn(CC(F)(F)F)c32)s1 [Example 153, N-(4-Methoxypyridin-3-yl)-8-(2,2,2-trifluoroethyl)-8H-imidazo[4′,5′:5,6]-benzo[1,2-d]thiazol-2-amine]"
5.18,5.96,6.20,"COc1ccncc1Nc1nc2c(ccc3nc(C)n(C)c32)s1 [Example 154, N-(4-Methoxypyridin-3-yl)-7,8-dimethyl-8H-imidazo[4′,5′:5,6]benzo[1,2-d]thiazol-2-amine.TFA]"
6.14,6.85,6.82,"CCOc1ccncc1Nc1nc2c(ccc3nc(C)n(CC)c32)s1 [Example 155, N-(4-Ethoxypyridin-3-yl)-8-ethyl-7-methyl-8H-imidazo[4′,5′:5,6]benzo[1,2-d]thiazol-2-amine.TFA]"
6.19,7.40,7.00,"CCOc1ccncc1Nc1nc2c(ccc3c2ncn3C)s1 [Example 156, N-(4-Ethoxypyridin-3-yl)-6-methyl-6H-imidazo[4′,5′:5,6]benzo[1,2-d]thiazol-2-amine.HCl]"
6.46,7.74,7.38,"CC(C)Oc1ccncc1Nc1nc2c(ccc3c2ncn3C)s1 [Example 157, N-(4-Isopropoxypyridin-3-yl)-6-methyl-6H-imidazo[4′,5′:5,6]benzo[1,2-d]thiazol-2-amine.HCl]"
6.59,7.85,7.19,"Cc1nc2c3nc(Nc4cnccc4OC(C)C)sc3ccc2n1C [Example 158, N-(4-Isopropoxypyridin-3-yl)-6,7-dimethyl-6H-imidazo[4′,5′:5,6]benzo[1,2-d]thiazol-2-amine.HCl]"
6.42,7.37,7.18,"CCn1c(C)nc2ccc3sc(Nc4cnccc4OC(C)C)nc3c21 [Example 159, 8-Ethyl-N-(4-isopropoxypyridin-3-yl)-7-methyl-8H-imidazo[4′,5′:5,6]benzo[1,2-d]thiazol-2-amine.HCl]"
6.54,7.12,6.80,"CC(C)Oc1ccc(C#N)cc1Nc1nc2c(ccc3c2ncn3C)s1 [Example 160, 4-isopropoxy-3-((6-methyl-6H-imidazo[4′,5′:5,6]benzo[1,2-d]thiazol-2-yl)amino)benzonitrile.HCl]"
6.44,6.96,6.74,Cn1cnc2c3nc(Nc4cc(C#N)ccc4OC(F)(F)F)sc3ccc21 [Example 164]
